Results as given in the NIST ThermoML archive (doi:10.1016/j.jct.2018.01.015).

Conditions: Gas, rotating-body viscometer for gases

N#N [nitrogen]
Conditions | viscosity [mPa·s]
253.21 K, 100.8 kPa | 0.01561
253.21 K, 200.9 kPa | 0.01564
253.21 K, 400.7 kPa | 0.01566
253.21 K, 600.8 kPa | 0.01571
253.21 K, 800.8 kPa | 0.01574
253.21 K, 1000.9 kPa | 0.01579
253.21 K, 1200.9 kPa | 0.01584
273.24 K, 100.7 kPa | 0.01659
273.24 K, 200.8 kPa | 0.01661
273.24 K, 400.5 kPa | 0.01664
273.24 K, 600.4 kPa | 0.01667
273.24 K, 800.6 kPa | 0.01671
273.24 K, 1000.6 kPa | 0.01674
273.24 K, 1499.8 kPa | 0.01685
298.24 K, 800.5 kPa | 0.01785
298.25 K, 99.6 kPa | 0.01776
298.25 K, 100.7 kPa | 0.01777
298.25 K, 200.5 kPa | 0.01778
298.25 K, 400.7 kPa | 0.0178
298.25 K, 400.8 kPa | 0.0178
298.25 K, 600.2 kPa | 0.01783
298.25 K, 1000.1 kPa | 0.01789
298.25 K, 1500.2 kPa | 0.01799
323.26 K, 100.6 kPa | 0.0189
323.26 K, 101.5 kPa | 0.0189
323.26 K, 200.7 kPa | 0.0189
323.26 K, 400.4 kPa | 0.01893
323.26 K, 600.8 kPa | 0.01896
323.26 K, 800.2 kPa | 0.01896
323.26 K, 1000.6 kPa | 0.01901
323.26 K, 1000.9 kPa | 0.01901
323.27 K, 398.8 kPa | 0.01893
323.27 K, 1501.9 kPa | 0.01907
323.27 K, 1802.1 kPa | 0.01913
373.29 K, 100.8 kPa | 0.02102
373.29 K, 201.1 kPa | 0.02104
373.29 K, 401 kPa | 0.02106
373.29 K, 601 kPa | 0.02107
373.29 K, 1000.3 kPa | 0.02111
373.29 K, 1500.6 kPa | 0.02118
373.29 K, 1807.2 kPa | 0.02122
423.33 K, 100.9 kPa | 0.02302
423.33 K, 200.9 kPa | 0.02303
423.33 K, 400.7 kPa | 0.02306
423.33 K, 600.6 kPa | 0.02308
423.33 K, 1000.5 kPa | 0.02311
423.33 K, 1500.2 kPa | 0.02316
423.33 K, 1799.4 kPa | 0.02319
473.38 K, 100.7 kPa | 0.02494
473.38 K, 200.8 kPa | 0.02495
473.38 K, 398.5 kPa | 0.02496
473.38 K, 600.9 kPa | 0.02497
473.38 K, 1000.7 kPa | 0.02499
473.38 K, 1500.6 kPa | 0.02503
473.38 K, 1799.3 kPa | 0.02505
